Consider 7 compounds from PubChem BioAssay (NCI).

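Results reflect a 48-hour exposure of cells in 96-well plates to compound at five concentrations. At the GI50, growth is halved. TGI: concentration producing complete growth inhibition.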

Among the test systems are T-47D breast; A549 NSCLC; RXF 393 renal; M14 melanoma; CCRF-CEM leukemia; SN12C renal; 786-0 renal; HCC-2998 colon; ACHN renal; HT29 colon.
Holding throughout (experiment): DTP human tumour cell line panel, 48 h

Take `Cc1nn(-c2ccccc2)c2nc(C)n(-c3ccc(Br)cc3)c(=O)c12`: the GI50 (commonly the concentration giving 50% growth inhibition) in the test with T-47D breast was 0.427 µM; in the test on A549 NSCLC it was 0.927 µM; with RXF 393 renal it was 0.286 µM; in the test with M14 melanoma it was 0.429 µM; in the test with CCRF-CEM leukemia, 0.411 µM; in the test with SN12C renal, 0.721 µM. The GI50 was 0.542 µM in the test on 786-0 renal, 1.61 µM in the test on HCC-2998 colon, 0.584 µM in the test with ACHN renal and 0.355 µM in the test on HT29 colon. The TGI (as a rule, the concentration giving total growth inhibition) was greater than 70.5 µM with T-47D breast; greater than 100 µM with A549 NSCLC; 0.972 µM in the test with RXF 393 renal; greater than 100 µM in the test with M14 melanoma; greater than 100 µM with CCRF-CEM leukemia; greater than 100 µM in the test with SN12C renal. The TGI is greater than 100 µM with 786-0 renal, greater than 100 µM in the test on HCC-2998 colon, greater than 100 µM in the test on ACHN renal and greater than 31.6 µM in the test with HT29 colon.

As to `C/C(=N\NC(=S)N1CCN(c2ccccn2)CC1)c1cccc2cccnc12`, the TGI in the test on T-47D breast is greater than 87.6 µM; in the test on A549 NSCLC, greater than 100 µM; in the test with RXF 393 renal it was greater than 100 µM; in the test on M14 melanoma, greater than 47.4 µM; in the test with CCRF-CEM leukemia, greater than 42.8 µM; in the test on SN12C renal, 34.8 µM. In addition, the TGI in the test with 786-0 renal was greater than 100 µM; with HCC-2998 colon, greater than 58.9 µM; in the test on ACHN renal, greater than 100 µM; in the test on HT29 colon, 21.2 µM.

Turning to `Oc1ccc(/C=N/NC(=S)Nc2cccnc2)nc1`, the TGI with T-47D breast is greater than 100 µM; with A549 NSCLC, greater than 100 µM; in the test with RXF 393 renal, greater than 61.2 µM; in the test with M14 melanoma, greater than 33.3 µM; in the test with CCRF-CEM leukemia it was 9.78 µM; with SN12C renal, greater than 57 µM. Also, the TGI in the test on 786-0 renal is greater than 73.5 µM; with HCC-2998 colon, greater than 100 µM; in the test on ACHN renal, 32.3 µM; with HT29 colon it was greater than 100 µM.

For the compound `CC(C)(C)OC(=O)N1Cc2cc3ccccc3nc2C1CO` (stereo not given), the GI50 with T-47D breast, with A549 NSCLC, in the test on RXF 393 renal, with M14 melanoma, in the test on CCRF-CEM leukemia and in the test on SN12C renal was greater than 100 µM in each case. In addition, the GI50 in the test on 786-0 renal, in the test on HCC-2998 colon, with ACHN renal and with HT29 colon was greater than 100 µM each time. The total growth inhibition concentration (TGI) in the test on T-47D breast, in the test on A549 NSCLC, with RXF 393 renal, with M14 melanoma, with CCRF-CEM leukemia and with SN12C renal was greater than 100 µM throughout. In addition, the TGI in the test on 786-0 renal, with HCC-2998 colon, with ACHN renal and with HT29 colon was greater than 100 µM in each case.

As to `CC1(C)CN(CCNc2nccc(-c3c(-c4cccc(O)c4)nc4sccn34)n2)S(=O)(=O)N1`, the GI50 in the test on T-47D breast is 11.2 µM; in the test on A549 NSCLC, 14.2 µM; in the test with RXF 393 renal, 3 µM; with M14 melanoma, 0.317 µM; in the test with CCRF-CEM leukemia it was 7.25 µM; in the test with SN12C renal, 9.86 µM. Moreover, the GI50 in the test on 786-0 renal was 11.2 µM; with HCC-2998 colon, 19.5 µM; in the test with ACHN renal, 7.07 µM; with HT29 colon, 3.2 µM. The TGI in the test with T-47D breast is greater than 33.2 µM; in the test with A549 NSCLC it was greater than 33.2 µM; in the test with RXF 393 renal, 21.6 µM; in the test with M14 melanoma, greater than 26.4 µM; with CCRF-CEM leukemia, greater than 33.2 µM; with SN12C renal it was greater than 33.2 µM. The TGI with 786-0 renal, with HCC-2998 colon, in the test with ACHN renal and with HT29 colon was greater than 33.2 µM in each case.

With `O=C1c2ccccc2C(=O)c2sc(Nc3ccc([N+](=O)[O-])cc3)nc21`, the TGI is 6.81 µM with T-47D breast; 41.7 µM in the test with A549 NSCLC; 9.71 µM in the test with RXF 393 renal; 5.91 µM with M14 melanoma; 5.37 µM in the test on CCRF-CEM leukemia; 8.15 µM in the test with SN12C renal. Also, the TGI with 786-0 renal was 12.3 µM; in the test with HCC-2998 colon it was 30.1 µM; in the test with ACHN renal, 7.55 µM; in the test on HT29 colon it was 57.7 µM.

Take `Nc1no[n+]([O-])c1-c1nnc2c(n1)-c1ccccc1C2=O`: the GI50 is 1.91 µM with T-47D breast; 5.44 µM in the test on A549 NSCLC; 3.22 µM in the test with RXF 393 renal; 1.78 µM with M14 melanoma; 3.22 µM in the test on CCRF-CEM leukemia; 1.86 µM with SN12C renal. The GI50 is 4.3 µM with 786-0 renal, 13 µM in the test with HCC-2998 colon, 1.56 µM with ACHN renal and 2.41 µM in the test with HT29 colon. The TGI in the test on T-47D breast turned out to be 5.35 µM; in the test with A549 NSCLC it was 20.3 µM; in the test on RXF 393 renal, 12.4 µM; in the test with M14 melanoma, 3.66 µM; in the test with CCRF-CEM leukemia, 9.37 µM; with SN12C renal, 3.51 µM. The TGI with 786-0 renal worked out at 16.8 µM; in the test on HCC-2998 colon, 26.8 µM; with ACHN renal it was 3.1 µM; in the test on HT29 colon it was 6.74 µM.
